The results in this text go back to patent publication US9777020B2, “Furo-3-carboxamide derivatives and methods of use” (AbbVie Inc., priority 2014, dated 2017).

pIC50: −log10 of the molar value.

The test deals with TrkA (Homo sapiens (Human), UniProt P04629). Description: TrkA kinase HTRF enzyme inhibition assay. It is filed as biochemical. The note with it: TrkA pre-incubated with 200 μM ATP. The essentials: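 HTRF ratio read-out of biotin-peptide (125 nM) phosphorylation, 1 h reaction after TrkA (2-10 nM) auto-activation with ATP (200 μM) for 20 min and 10 min compound pre-incubation in 50 mM HEPES pH 7.4 with MgCl2/MnCl2. Percent inhibition from initial rates in duplicate, fitted to single-site equation for IC50.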
Sequence of TrkA (P04629 33-796): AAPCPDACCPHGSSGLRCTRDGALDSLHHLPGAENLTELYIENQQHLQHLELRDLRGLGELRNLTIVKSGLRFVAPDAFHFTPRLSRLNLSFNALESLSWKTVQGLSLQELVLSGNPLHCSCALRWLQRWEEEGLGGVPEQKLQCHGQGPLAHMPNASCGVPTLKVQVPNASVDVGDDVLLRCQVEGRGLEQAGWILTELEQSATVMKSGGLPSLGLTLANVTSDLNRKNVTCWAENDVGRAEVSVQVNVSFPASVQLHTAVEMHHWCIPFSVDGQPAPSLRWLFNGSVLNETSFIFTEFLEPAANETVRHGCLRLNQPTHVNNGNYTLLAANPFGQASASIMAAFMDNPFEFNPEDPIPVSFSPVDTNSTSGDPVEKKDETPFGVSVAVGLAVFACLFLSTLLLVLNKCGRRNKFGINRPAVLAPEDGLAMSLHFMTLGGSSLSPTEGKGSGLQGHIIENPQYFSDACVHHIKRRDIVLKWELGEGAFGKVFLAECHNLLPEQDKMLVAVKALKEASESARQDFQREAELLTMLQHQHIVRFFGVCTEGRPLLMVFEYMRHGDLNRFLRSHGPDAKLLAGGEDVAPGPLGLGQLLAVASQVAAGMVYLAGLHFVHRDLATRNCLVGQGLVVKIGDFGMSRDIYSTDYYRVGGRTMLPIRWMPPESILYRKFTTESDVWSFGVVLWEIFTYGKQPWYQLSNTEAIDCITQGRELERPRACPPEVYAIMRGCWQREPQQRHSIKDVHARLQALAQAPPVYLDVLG

As a reminder, the pIC50 is −log10 of the IC50, conventionally taken in molar units. High values mean a low IC50, low ones a high IC50. `Cc1n[nH]c2ccc(NC(=O)c3coc4c3C(=O)N(C)CC4)cc12` [Example 73, 5-methyl-N-(3-methyl-1H-indazol-5-yl)-4-oxo-4,5,6,7-tetrahydrofuro[3,2-c]pyridine-3-carboxamide] gave a negative-log IC50 (pIC50) of 5.97. Consider `CC1(C)CC(=O)c2c(C(=O)Nc3ccc4nn(CCO)cc4c3)coc2C1` [Example 153, N-[2-(2-hydroxyethyl)-2H-indazol-5-yl]-6,6-dimethyl-4-oxo-4,5,6,7-tetrahydro-1-benzofuran-3-carboxamide], for which the pIC50 was 7.34. Take `CC(=O)N1CCN(c2ccc(NC(=O)c3coc4c3C(=O)NC(C)(C)C4)c(O[C@H]3CCOC3)n2)CC1` [Example 181, N-{6-(4-acetylpiperazin-1-yl)-2-[(3S)-tetrahydrofuran-3-yloxy]pyridin-3-yl}-6,6-dimethyl-4-oxo-4,5,6,7-tetrahydrofuro[3,2-c]pyridine-3-carboxamide]: the negative-log IC50 (pIC50) was 7.99.

`Cc1cc(NC(=O)c2coc3c2C(=O)NCC3)no1` [Example 38, N-(5-methyl-1,2-oxazol-3-yl)-4-oxo-4,5,6,7-tetrahydrofuro[3,2-c]pyridine-3-carboxamide]: the negative-log IC50 (pIC50) is 5.76.

`CCOc1nc(C2CCN(C(C)=O)CC2)ccc1NC(=O)c1coc2c1C(=O)NC(C)(C)C2` [Example 184, N-[6-(1-acetylpiperidin-4-yl)-2-ethoxypyridin-3-yl]-6,6-dimethyl-4-oxo-4,5,6,7-tetrahydrofuro[3,2-c]pyridine-3-carboxamide]: the negative logarithm of the IC50 (pIC50) is 8.46. The same measure for `CN1CCc2occ(C(=O)Nc3ccc(F)cn3)c2C1=O` [Example 68, N-(5-fluoropyridin-2-yl)-5-methyl-4-oxo-4,5,6,7-tetrahydrofuro[3,2-c]pyridine-3-carboxamide]: 5.24; for `CC(=O)N1CCN(c2ccc(NC(=O)c3coc4c3C(=O)CC(C)(C)C4)cc2)CC1` [Example 148, N-[4-(4-acetylpiperazin-1-yl)phenyl]-6,6-dimethyl-4-oxo-4,5,6,7-tetrahydro-1-benzofuran-3-carboxamide]: 7.49; for `CC(=O)Nc1ccc(NC(=O)c2coc3c2C(=O)N(C)CC3)cc1` [Example 60, N-(4-acetamidophenyl)-5-methyl-4-oxo-4,5,6,7-tetrahydrofuro[3,2-c]pyridine-3-carboxamide]: 5.68. `NC(=O)c1ccc(NC(=O)c2coc3c2C(=O)NCC3)cc1` [Example 13, N-(4-carbamoylphenyl)-4-oxo-4,5,6,7-tetrahydrofuro[3,2-c]pyridine-3-carboxamide] showed a negative logarithm of the IC50 (pIC50) of 6.78. Compound `CCOc1nc(N2CCN(C(=NC#N)NC)CC2)ccc1NC(=O)c1coc2c1C(=O)NC1(CCC1)C2` [Example 118, N-{6-[4-(N′-cyano-N-methylcarbamimidoyl)piperazin-1-yl]-2-ethoxypyridin-3-yl}-4′-oxo-4′,7′-dihydro-5′H-spiro[cyclobutane-1,6′-furo[3,2-c]pyridine]-3′-carboxamide] showed a negative-log IC50 (pIC50) of 8.52. The value for `CCOc1nc(CCO)ccc1NC(=O)c1coc2c1C(=O)NC(C)(C)C2` [Example 143, N-[2-ethoxy-6-(2-hydroxyethyl)pyridin-3-yl]-6,6-dimethyl-4-oxo-4,5,6,7-tetrahydrofuro[3,2-c]pyridine-3-carboxamide] was 7.61. The same measure for `CC(=O)N1CCN(c2ccc(NC(=O)c3coc4c3C(=O)NCC4)c(OC3COC3)n2)CC1` [Example 21, N-[6-(4-acetylpiperazin-1-yl)-2-(oxetan-3-yloxy)pyridin-3-yl]-4-oxo-4,5,6,7-tetrahydrofuro[3,2-c]pyridine-3-carboxamide]: 7.67. The same measure for `CC(=O)N1CCN(c2ccc(NC(=O)c3coc4c3C(=O)NCC4)cc2)CC1` [Example 10, N-[4-(4-acetylpiperazin-1-yl)phenyl]-4-oxo-4,5,6,7-tetrahydrofuro[3,2-c]pyridine-3-carboxamide]: 7.25.

The compound `COc1cc(N2CCNCC2)ccc1NC(=O)c1coc2c1C(=O)NC(C)(C)C2` [Example 120, N-[2-methoxy-4-(piperazin-1-yl)phenyl]-6,6-dimethyl-4-oxo-4,5,6,7-tetrahydrofuro[3,2-c]pyridine-3-carboxamide] showed a pIC50 of 7.55. `Cn1cc2cc(NC(=O)c3coc4c3C(=O)C(C)(CO)CC4)ccc2n1` (stereo not drawn) [Example 167, 5-(hydroxymethyl)-5-methyl-N-(2-methyl-2H-indazol-5-yl)-4-oxo-4,5,6,7-tetrahydro-1-benzofuran-3-carboxamide] showed a negative-log IC50 (pIC50) of 7.45. The same measure for `COCC1(C)CC(=O)c2c(C(=O)Nc3ccc(N4CCNCC4)cc3OC)coc2C1` (stereo not drawn) [Example 166, 6-(methoxymethyl)-N-[2-methoxy-4-(piperazin-1-yl)phenyl]-6-methyl-4-oxo-4,5,6,7-tetrahydro-1-benzofuran-3-carboxamide]: 6.98; for `CC(=O)Nc1ccc(NC(=O)c2coc3c2C(=O)NCC3)cc1` [Example 32, N-(4-acetamidophenyl)-4-oxo-4,5,6,7-tetrahydrofuro[3,2-c]pyridine-3-carboxamide]: 6.26. Take `CN1CCc2occ(C(=O)Nc3ccc(Cl)cn3)c2C1=O` [Example 70, N-(5-chloropyridin-2-yl)-5-methyl-4-oxo-4,5,6,7-tetrahydrofuro[3,2-c]pyridine-3-carboxamide]: the pIC50 was 5.60. The same measure for `CN1CCc2occ(C(=O)Nc3ccc(N4CCOCC4)cc3)c2C1=O` [Example 25, 5-methyl-N-[4-(morpholin-4-yl)phenyl]-4-oxo-4,5,6,7-tetrahydrofuro[3,2-c]pyridine-3-carboxamide]: 6.95. The same measure for `Cc1n[nH]c2ccc(NC(=O)c3coc4c3C(=O)NCC4)cc12` [Example 45, N-(3-methyl-1H-indazol-5-yl)-4-oxo-4,5,6,7-tetrahydrofuro[3,2-c]pyridine-3-carboxamide]: 5.46; for `CCN(CC)c1ccc(NC(=O)c2coc3c2C(=O)NCC3)cc1` [Example 49, N-[4-(diethylamino)phenyl]-4-oxo-4,5,6,7-tetrahydrofuro[3,2-c]pyridine-3-carboxamide]: 6.20; for `CC(=O)N1CCN(c2ccc(NC(=O)c3coc4c3C(=O)NC(C)(C)C4)c(OC(C)C)n2)[C@H](CO)C1` [Example 134, N-{6-[(2S)-4-acetyl-2-(hydroxymethyl)piperazin-1-yl]-2-isopropoxypyridin-3-yl}-6,6-dimethyl-4-oxo-4,5,6,7-tetrahydrofuro[3,2-c]pyridine-3-carboxamide]: 8.41. The same measure for `CCOc1nc(N2CCN(C(C)=O)CC2)ccc1NC(=O)c1coc2c1C(=O)N(CCOCc1ccccc1)CC2` [Example 8, N-[6-(4-acetylpiperazin-1-yl)-2-ethoxypyridin-3-yl]-5-[2-(benzyloxy)ethyl]-4-oxo-4,5,6,7-tetrahydrofuro[3,2-c]pyridine-3-carboxamide]: 7.16. As to `CCOc1nc(N2CCN(C(C)=O)CC2)ccc1NC(=O)c1coc2c1C(=O)N(C[C@H](C)OC(C)=O)CC2` [Example 96, (2S)-1-[3-{[6-(4-acetylpiperazin-1-yl)-2-ethoxypyridin-3-yl]carbamoyl}-4-oxo-6,7-dihydrofuro[3,2-c]pyridin-5(4H)-yl]propan-2-yl acetate], the pIC50 was 8.17. The same measure for `O=C(Nc1ccc(F)cn1)c1coc2c1C(=O)NCC2` [Example 40, N-(5-fluoropyridin-2-yl)-4-oxo-4,5,6,7-tetrahydrofuro[3,2-c]pyridine-3-carboxamide]: 5.49.

The compound `CCOc1nc(N2CCN(C(C)=O)CC2)ccc1NC(=O)c1coc2c1C(=O)N(C[C@H](C)O)CC2` [Example 97, N-[6-(4-acetylpiperazin-1-yl)-2-ethoxypyridin-3-yl]-5-[(2S)-2-hydroxypropyl]-4-oxo-4,5,6,7-tetrahydrofuro[3,2-c]pyridine-3-carboxamide] gave a negative logarithm of the IC50 (pIC50) of 8.32. Turning to `CC(O)Cn1ncc2cc(NC(=O)c3coc4c3C(=O)NCC4)ccc21` (stereo not drawn) [Example 50, N-[1-(2-hydroxypropyl)-1H-indazol-5-yl]-4-oxo-4,5,6,7-tetrahydrofuro[3,2-c]pyridine-3-carboxamide], the negative-log IC50 (pIC50) was 7.04. The value for `CCOc1nc(N2CCN(C(C)=O)CC2)ccc1NC(=O)c1coc2c1C(=O)N([C@H](C)CO)CC2` [Example 99, N-[6-(4-acetylpiperazin-1-yl)-2-ethoxypyridin-3-yl]-5-[(2R)-1-hydroxypropan-2-yl]-4-oxo-4,5,6,7-tetrahydrofuro[3,2-c]pyridine-3-carboxamide] was 8.48; that for `CC(=O)N1CCN(c2ccc(NC(=O)c3coc4c3C(=O)NC(C)(C)C4)c(OC3COC3)n2)CC1` [Example 179, N-[6-(4-acetylpiperazin-1-yl)-2-(oxetan-3-yloxy)pyridin-3-yl]-6,6-dimethyl-4-oxo-4,5,6,7-tetrahydrofuro[3,2-c]pyridine-3-carboxamide] was 8.31; that for `CCOc1nc(N2CCN(C(C)=O)CC2)ccc1NC(=O)c1coc2c1C(=O)N(CCOCCO)C(C)(C)C2` [Example 176, N-[6-(4-acetylpiperazin-1-yl)-2-ethoxypyridin-3-yl]-5-[2-(2-hydroxyethoxyl)ethyl]-6,6-dimethyl-4-oxo-4,5,6,7-tetrahydrofuro[3,2-c]pyridine-3-carboxamide] was 8.68. The same measure for `Cn1cc2cc(NC(=O)c3coc4c3C(=O)CNC4)ccc2n1` [Example 160, N-(2-methyl-2H-indazol-5-yl)-4-oxo-4,5,6,7-tetrahydrofuro[2,3-c]pyridine-3-carboxamide]: 6.59; for `O=C(Nc1ccc2[nH]ncc2c1)c1coc2c1C(=O)NCC2` [Example 14, N-(1H-indazol-5-yl)-4-oxo-4,5,6,7-tetrahydrofuro[3,2-c]pyridine-3-carboxamide]: 6.96; for `COC(=O)c1ccc(Oc2nc(N3CCN(C)CC3)ccc2NC(=O)c2coc3c2C(=O)NCCC3)cc1` [Example 82, methyl 4-{[6-(4-methylpiperazin-1-yl)-3-{[(4-oxo-5,6,7,8-tetrahydro-4H-furo[3,2-c]azepin-3-yl)carbonyl]amino}pyridin-2-yl]oxy}benzoate]: 6.17.
